Data published in patent US3956274A, “New compound 6'-deoxy-'-substituted or unsubstituted amino-lividomycins and the production thereof” (Zaidan Hojin Biseibutsu Kagaku Kenkyu Kai, priority 1973, dated 1976).
Values after ≈ are worked out from the molar mass of the structure shown.

Legend:
[1] = system: strains producing the phosphotransferase; details: in words; cited from earlier work
[2] = system: kanamycin-resistant strains; details: in words; cited from earlier work
[3] = system: Pseudomonas aeruginosa No.12; test: MIC, standard serial dilution method; type: cell-based; details: P. aeruginosa No.12, nutrient agar, 37°C, 18 hours
Experimental: (§1) The minimum inhibitory concentrations (mcg/ml) of 6'-amino-6'-deoxylividomycin B, 6'-deoxy-6'-methylaminolividomycin B and 6'-deoxy-6'-(2-hydroxyethylamino) lividomycin B against various microorganisms were determined according to a standard serial dilution method using nutrient agar incubation medium at 37°C, the estimation being effected after 18 hours incubation except for Mycobacterium smegmalis ATCC 607, in which the estimation being effected after 48 hours incubation. The minimum inhibitory concentrations (mcg/ml) of neomycin and lividomycin B were also determined in the same manner they also for comparison.

[4] = system: Staphylococcus aureus FDA 209 P; test: MIC, standard serial dilution method; type: cell-based; details: S. aureus FDA 209 P, nutrient agar, 37°C, 18 hours
Experimental: as §1

[5] = system: Bacillus subtilis NRRL B-558; test: MIC, standard serial dilution method; type: cell-based; details: B. subtilis NRRL B-558, nutrient agar, 37°C, 18 hours
Experimental: as §1

[6] = system: Escherichia coli K-12 ML 1410; test: MIC, standard serial dilution method; type: cell-based
Experimental: as §1

[7] = system: Proteus rettgeri GN 311; test: MIC, standard serial dilution method; type: cell-based; details: 37°C, 18 hours
Experimental: as §1

[8] = system: Escherichia coli K-12 ML 1410 R 81; test: MIC, standard serial dilution method; type: cell-based
Experimental: as §1

[9] = system: Escherichia coli K-12 ML 1630; test: MIC, standard serial dilution method; type: cell-based; details: E. coli K-12 ML 1630, nutrient agar, 37°C, 18 hours
Experimental: as §1

[10] = system: Escherichia coli K-12 LA 290 R 64; test: MIC, standard serial dilution method; type: cell-based; details: E. coli K-12 LA 290 R 64, nutrient agar, 37°C, 18 hours
Experimental: as §1

[11] = system: Pseudomonas aeruginosa A 3; test: MIC, standard serial dilution method; type: cell-based
Experimental: as §1

[12] = system: Proteus rettgeri GN 466; test: MIC, standard serial dilution method; type: cell-based
Experimental: as §1

[13] = system: Salmonella typhosa T-63; test: MIC, standard serial dilution method; type: cell-based
Experimental: as §1

[14] = system: Klebsiella pneumoniae PCI 602; test: MIC, standard serial dilution method; type: cell-based; details: K. pneumoniae PCI 602, nutrient agar, 37°C, 18 hours
Experimental: as §1

[15] = system: Escherichia coli K-12 R-5; test: MIC, standard serial dilution method; type: cell-based; details: E. coli K-12 R-5, nutrient agar, 37°C, 18 hours
Experimental: as §1

[16] = system: Pseudomonas aeruginosa 99; test: MIC, standard serial dilution method; type: cell-based; details: P. aeruginosa 99, nutrient agar, 37°C, 18 hours
Experimental: as §1

[17] = system: Mycobacterium smegmatis ATCC 607; test: MIC, standard serial dilution method; type: cell-based; details: 37°C, 48 hours
Experimental: as §1

[18] = system: Escherichia coli K-12 J 5 R 11-2; test: MIC, standard serial dilution method; type: cell-based; details: E. coli K-12 J 5 R 11-2, nutrient agar, 37°C, 18 hours
Experimental: as §1

[19] = system: Escherichia coli K-12 LA 290 R 56; test: MIC, standard serial dilution method; type: cell-based
Experimental: as §1

[20] = system: Escherichia coli K-12 W 677; test: MIC, standard serial dilution method; type: cell-based
Experimental: as §1

[21] = system: Escherichia coli K-12; test: MIC, standard serial dilution method; type: cell-based; details: E. coli K-12, nutrient agar, 37°C, 18 hours
Experimental: as §1

[22] = system: Escherichia coli NIHJ; test: MIC, standard serial dilution method; type: cell-based
Experimental: as §1

[23] = system: Klebsiella pneumoniae type 22 No. 3038; test: MIC, standard serial dilution method; type: cell-based
Experimental: as §1

[24] = system: Pseudomonas aeruginosa TI-13-1; test: MIC, standard serial dilution method; type: cell-based; details: P. aeruginosa TI-13-1, nutrient agar, 37°C, 18 hours
Experimental: as §1

[25] = system: Sarcina lutea PCI 1001; test: MIC, standard serial dilution method; type: cell-based; details: 37°C, 18 hours
Experimental: as §1

[26] = system: Escherichia coli K-12 ML 1629; test: MIC, standard serial dilution method; type: cell-based; details: E. coli K-12 ML 1629, drug-resistant strain of patient-origin, nutrient agar, 37°C, 18 hours
Experimental: as §1
(§2) In the above table, the mark * denotes the strain is a drug-resistant
(§3) strain of patient-origin.

[27] = system: Pseudomonas aeruginosa GN 315; test: MIC, standard serial dilution method; type: cell-based; details: P. aeruginosa GN 315, drug-resistant strain of patient-origin, nutrient agar, 37°C, 18 hours
Experimental: as §1, §2, §3

[28] = system: Escherichia coli K-12 LA 290 R 55; test: MIC, standard serial dilution method; type: cell-based
Experimental: as §1, §2, §3

[29] = system: Escherichia coli K-12 JR 66/W 677; test: MIC, standard serial dilution method; type: cell-based
Experimental: as §1, §2, §3

[30] = Pseudomonas aeruginosa, read-out: Minimal inhibitory concentration
[31] = Escherichia coli, 18 h, read-out: Minimal inhibitory concentration

## NC[C@@H]1CC[C@@H](N)[C@@H](O[C@H]2[C@H](O[C@@H]3O[C@H](CO)[C@@H](O)[C@H]3O)[C@@H](O)[C@H](N)C[C@@H]2N)O1 [3', 4'-dideoxyribostamycin]
[1]
  inactivation by some strains producing the phosphotransferase: can be inactivated by some strains producing the phosphotransferase

## NC[C@@H]1O[C@H](O[C@H]2[C@@H](O)[C@H](O[C@@H]3[C@@H](O)[C@H](N)C[C@H](N)[C@H]3O[C@H]3O[C@H](CO)[C@@H](O)C[C@H]3N)O[C@@H]2CO)[C@H](N)[C@@H](O)[C@@H]1O [LVB, lividomycin B, reference compound]
[2]
  activity against kanamycin-resistant strains: active against the kanamycin-resistant bacteria
[3]; [30]
  MIC: 25 µg/mL (≈ 41.7 µM)
[4]; Staphylococcus aureus, FDA209, read-out: Minimal inhibitory concentration
  MIC: 1.56 µg/mL (≈ 2.6 µM)
[5]; Bacillus subtilis, NRRLB558, read-out: Minimal inhibitory concentration
  MIC: < 0.2 µg/mL
[6]; Escherichia coli, K12ML1410, 18 h, read-out: Minimal inhibitory concentration
  MIC: 6.25 µg/mL (≈ 10.4 µM)
[7]; Providencia rettgeri, GN311, nutrient agar, read-out: Minimal inhibitory concentration
  MIC: 1.56 µg/mL (≈ 2.6 µM)
[8]; [31]
  MIC: > 100 µg/mL
[9]; Escherichia coli, K12ML1630, read-out: Minimal inhibitory concentration
  MIC: > 100 µg/mL
[10]; Escherichia coli, read-out: Minimal inhibitory concentration
  MIC: 3.12 µg/mL (≈ 5.2 µM)
[11]; Pseudomonas aeruginosa, A3, 18 h, read-out: Minimal inhibitory concentration
  MIC: 6.25 µg/mL (≈ 10.4 µM)
[12]; Providencia rettgeri, GN466, 18 h, read-out: Minimal inhibitory concentration
  MIC: 3.12 µg/mL (≈ 5.2 µM)
[13]; Salmonella enterica, TYPHOSA, 18 h, read-out: Minimal inhibitory concentration
  MIC: 0.78 µg/mL (≈ 1.3 µM)
[14]; Klebsiella pneumoniae, PCI602, read-out: Minimal inhibitory concentration
  MIC: 1.56 µg/mL (≈ 2.6 µM)
[15]; Escherichia coli, K12R5, read-out: Minimal inhibitory concentration
  MIC: 1.56 µg/mL (≈ 2.6 µM)
[16]; [30]
  MIC: 100 µg/mL (≈ 167 µM)
[17]; Mycolicibacterium smegmatis, ATCC607, nutrient agar, read-out: Minimal inhibitory concentration
  MIC: 0.39 µg/mL (≈ 0.65 µM)
[18]; Escherichia coli, K12J5R112, read-out: Minimal inhibitory concentration
  MIC: > 100 µg/mL
[19]; [31]
  MIC: 3.12 µg/mL (≈ 5.2 µM)
[20]; Escherichia coli, K12W677, 18 h, read-out: Minimal inhibitory concentration
  MIC: 3.12 µg/mL (≈ 5.2 µM)
[21]; Escherichia coli, K12, read-out: Minimal inhibitory concentration
  MIC: 1.56 µg/mL (≈ 2.6 µM)
[22]; [31]
  MIC: 3.12 µg/mL (≈ 5.2 µM)
[23]; Klebsiella pneumoniae, TYPE22NO.3038, 18 h, read-out: Minimal inhibitory concentration
  MIC: 6.25 µg/mL (≈ 10.4 µM)
[24]; Pseudomonas aeruginosa, TI131, read-out: Minimal inhibitory concentration
  MIC: > 100 µg/mL
[25]; Micrococcus luteus, PCI1001, nutrient agar, read-out: Minimal inhibitory concentration
  MIC: 1.56 µg/mL (≈ 2.6 µM)
[26]; Escherichia coli, K12ML1629, read-out: Minimal inhibitory concentration
  MIC: > 100 µg/mL
[27]; Pseudomonas aeruginosa, GN315, read-out: Minimal inhibitory concentration
  MIC: 50 µg/mL (≈ 83.4 µM)
[28]; [31]
  MIC: 3.12 µg/mL (≈ 5.2 µM)
[29]; [31]
  MIC: 6.25 µg/mL (≈ 10.4 µM)

## NC[C@@H]1O[C@H](O[C@H]2[C@@H](O)[C@H](O[C@@H]3[C@@H](O)[C@H](N)C[C@H](N)[C@H]3O[C@H]3O[C@H](CN)[C@@H](O)[C@H](O)[C@H]3N)O[C@@H]2CO)[C@H](N)[C@@H](O)[C@@H]1O [NM, neomycin, reference compound]
[3]
  Minimal inhibitory concentration: 3.12 µg/mL (≈ 5.08 µM)
[4]
  Minimal inhibitory concentration: 0.39 µg/mL (≈ 0.635 µM)
[5]
  Minimal inhibitory concentration: < 0.20 µg/mL
[6]; E. coli K-12 ML 1410, nutrient agar, 37°C, 18 hours
  Minimal inhibitory concentration: 6.25 µg/mL (≈ 10.2 µM)
[7]; nutrient agar
  Minimal inhibitory concentration: 50 µg/mL (≈ 81.3 µM)
[8]; E. coli K-12 ML 1410 R 81, nutrient agar, 37°C, 18 hours
  Minimal inhibitory concentration: > 100 µg/mL
[9]
  Minimal inhibitory concentration: > 100 µg/mL
[10]
  Minimal inhibitory concentration: 0.39 µg/mL (≈ 0.635 µM)
[11]; P. aeruginosa A 3, nutrient agar, 37°C, 18 hours
  Minimal inhibitory concentration: 25 µg/mL (≈ 40.7 µM)
[12]; Proteus rettgeri GN 466, nutrient agar, 37°C, 18 hours
  Minimal inhibitory concentration: 3.12 µg/mL (≈ 5.08 µM)
[13]; Salmonella typhosa T-63, nutrient agar, 37°C, 18 hours
  Minimal inhibitory concentration: 0.78 µg/mL (≈ 1.27 µM)
[14]
  Minimal inhibitory concentration: 0.78 µg/mL (≈ 1.27 µM)
[15]
  Minimal inhibitory concentration: 0.78 µg/mL (≈ 1.27 µM)
[16]
  Minimal inhibitory concentration: 50 µg/mL (≈ 81.3 µM)
[17]; nutrient agar
  Minimal inhibitory concentration: < 0.20 µg/mL
[18]
  Minimal inhibitory concentration: 50 µg/mL (≈ 81.3 µM)
[19]; E. coli K-12 LA 290 R 56, nutrient agar, 37°C, 18 hours
  Minimal inhibitory concentration: 0.78 µg/mL (≈ 1.27 µM)
[20]; E. coli K-12 W 677, nutrient agar, 37°C, 18 hours
  Minimal inhibitory concentration: 0.78 µg/mL (≈ 1.27 µM)
[21]
  Minimal inhibitory concentration: 1.56 µg/mL (≈ 2.54 µM)
[22]; E. coli NIHJ, nutrient agar, 37°C, 18 hours
  Minimal inhibitory concentration: 1.56 µg/mL (≈ 2.54 µM)
[23]; K. pneumoniae type 22 No. 3038, nutrient agar, 37°C, 18 hours
  Minimal inhibitory concentration: > 100 µg/mL
[24]
  Minimal inhibitory concentration: > 100 µg/mL
[25]; nutrient agar
  Minimal inhibitory concentration: 0.78 µg/mL (≈ 1.27 µM)
[26]
  Minimal inhibitory concentration: 100 µg/mL (≈ 163 µM)
[27]
  Minimal inhibitory concentration: 100 µg/mL (≈ 163 µM)
[28]; E. coli K-12 LA 290 R 55, drug-resistant strain of patient-origin, nutrient agar, 37°C, 18 hours
  Minimal inhibitory concentration: 0.78 µg/mL (≈ 1.27 µM)
[29]; E. coli K-12 JR 66/W 677, drug-resistant strain of patient-origin, nutrient agar, 37°C, 18 hours
  Minimal inhibitory concentration: > 100 µg/mL
